# Results as given in US10076519B2 (CYTOKINETICS, INC., priority 2010, dated 2018).
# System: rabbit skeletal myofibrils (fast skeletal myofibrils)
# Assay: Activation of fast skeletal myofibrils (PUMA assay, PK/LDH-coupled ATPase at pCa25)
# Type: biochemical
# Summary of the method: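 Detergent-washed rabbit psoas myofibrils (~90% fast fibres, calcium-regulated) assayed at calcium giving 25% of maximal ATPase rate (pCa25). ADP turnover coupled via pyruvate kinase/lactate dehydrogenase to NADH oxidation, read at 340 nm. Buffer 12 mM PIPES, 2 mM MgCl2, 1 mM DTT, pH 6.8; AC1.4 values derived.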
# [1] = AC1.4 determined according to the procedure of Example 39, reported as class symbols
# [2] = median AC1.4 class, procedure of Example 39
Mean AC1.4 [1],Mean AC1.4 [2],SMILES
B (B=1-10 uM),,CC(C)(CNc1ccc(-c2cccnc2)nn1)c1ccccc1Cl [[2-(2-chlorophenyl)-2-methylpropyl](6-(3-pyridyl)pyridazin-3-yl)amine]
B (B=1-10 uM),,CC(C)(CNc1ccc(-c2cncnc2)nn1)c1ccccc1Cl [[2-(2-chlorophenyl)-2-methylpropyl](6-pyrimidin-5-ylpyridazin-3-yl)amine]
B (B=1-10 uM),,CC(C)(CNc1ccc(-c2ccccn2)nn1)c1ccc(F)cc1 [[2-(4-fluorophenyl)-2-methylpropyl](6-(2-pyridyl)pyridazin-3-yl)amine]
B (B=1-10 uM),,CC(C)(CNc1ccc(-c2cccnc2)nn1)c1ccc(F)cc1 [[2-(4-fluorophenyl)-2-methylpropyl](6-(3-pyridyl)pyridazin-3-yl)amine]
A (A=<1 uM),,CC(C)(CNc1ccc(-c2ccccc2)nn1)c1ccc(F)cc1 [[2-(4-fluorophenyl)-2-methylpropyl](6-phenylpyridazin-3-yl)amine]
B (B=1-10 uM),,CC(C)(CNc1ccc(-c2cc[nH]n2)nn1)c1ccc(F)cc1 [[2-(4-fluorophenyl)-2-methylpropyl](6-pyrazol-3-ylpyridazin-3-yl)amine]
B (B=1-10 uM),,CC(C)(CNc1ccc(-c2cn[nH]c2)nn1)c1ccc(F)cc1 [[2-(4-fluorophenyl)-2-methylpropyl](6-pyrazol-4-ylpyridazin-3-yl)amine]
B (B=1-10 uM),,"CC(C)(CNc1ccc(-c2cnc3[nH]ncc3c2)nn1)c1ccc(F)cc1 [[2-(4-fluorophenyl)-2-methylpropyl](6-pyrazolo[5,4-b]pyridin-5-ylpyridazin-3-yl)amine]"
A (A=<1 uM),,"CC(C)(CNc1ccc(-c2cnc3cc[nH]c3c2)nn1)c1ccc(F)cc1 [[2-(4-fluorophenyl)-2-methylpropyl](6-pyrrolo[3,2-b]pyridin-6-ylpyridazin-3-yl)amine]"
A (A=<1 uM),,"CC(C)(CNc1ccc(-c2ccc3[nH]nc(NCC(F)(F)F)c3c2)nn1)c1ccc(F)cc1 [[2-(4-fluorophenyl)-2-methylpropyl](6-{3-[(2,2,2-trifluoroethyl)amino](1H-indazol-5-yl)}pyridazin-3-yl)amine]"
A (A=<1 uM),,CC(C)Nc1n[nH]c2ccc(-c3ccc(NCC(C)(C)c4ccc(F)cc4)nn3)cc12 [[2-(4-fluorophenyl)-2-methylpropyl](6-{3-[(methylethyl)amino](1H-indazol-5-yl)}pyridazin-3-yl)amine]
B (B=1-10 uM),,Cn1ncc2ccc(-c3ccc(NCC(C)(C)c4ccc(F)cc4)nn3)cc21 [[2-(4-fluorophenyl)-2-methylpropyl][6-(1-methyl(1H-indazol-6-yl))pyridazin-3-yl]amine]
A (A=<1 uM),,CC(C)(CNc1ccc(-c2ccccc2F)nn1)c1ccc(F)cc1 [[2-(4-fluorophenyl)-2-methylpropyl][6-(2-fluorophenyl)pyridazin-3-yl]amine]
A (A=<1 uM),,COc1ncccc1-c1ccc(NCC(C)(C)c2ccc(F)cc2)nn1 [[2-(4-fluorophenyl)-2-methylpropyl][6-(2-methoxy(3-pyridyl))pyridazin-3-yl]amine]
C (C=10-20 uM),,COc1ncc(-c2ccc(NCC(C)(C)c3ccc(F)cc3)nn2)cn1 [[2-(4-fluorophenyl)-2-methylpropyl][6-(2-methoxypyrimidin-5-yl)pyridazin-3-yl]amine]
B (B=1-10 uM),,Cc1nc2cc(-c3ccc(NCC(C)(C)c4ccc(F)cc4)nn3)ccc2[nH]1 [[2-(4-fluorophenyl)-2-methylpropyl][6-(2-methylbenzimidazol-5-yl)pyridazin-3-yl]amine]
B (B=1-10 uM),,Cc1nc2cc(-c3ccc(NCC(C)(C)c4ccc(F)cc4)nn3)ccc2o1 [[2-(4-fluorophenyl)-2-methylpropyl][6-(2-methylbenzoxazol-5-yl)pyridazin-3-yl]amine]
B (B=1-10 uM),,Cc1nc2ccc(-c3ccc(NCC(C)(C)c4ccc(F)cc4)nn3)cc2o1 [[2-(4-fluorophenyl)-2-methylpropyl][6-(2-methylbenzoxazol-6-yl)pyridazin-3-yl]amine]
B (B=1-10 uM),,CC(C)=Cc1ccc(NCC(C)(C)c2ccc(F)cc2)nn1 [[2-(4-fluorophenyl)-2-methylpropyl][6-(2-methylprop-1-enyl)pyridazin-3-yl]amine]
B (B=1-10 uM),,CC(C)Cc1ccc(NCC(C)(C)c2ccc(F)cc2)nn1 [[2-(4-fluorophenyl)-2-methylpropyl][6-(2-methylpropyl)pyridazin-3-yl]amine]

Mean AC1.4 [1],Mean AC1.4 [2],SMILES
A (A=<1 uM),,CC(C)(CNc1ccc(-c2cccc(F)c2)nn1)c1ccc(F)cc1 [[2-(4-fluorophenyl)-2-methylpropyl][6-(3-fluorophenyl)pyridazin-3-yl]amine]
B (B=1-10 uM),,CC(C)(CNc1ccc(-c2ccc3[nH]nc(I)c3c2)nn1)c1ccc(F)cc1 [[2-(4-fluorophenyl)-2-methylpropyl][6-(3-iodo(1H-indazol-5-yl))pyridazin-3-yl]amine]
B (B=1-10 uM),,Cc1n[nH]c2cc(-c3ccc(NCC(C)(C)c4ccc(F)cc4)nn3)ccc12 [[2-(4-fluorophenyl)-2-methylpropyl][6-(3-methyl(1H-indazol-6-yl))pyridazin-3-yl]amine]
A (A=<1 uM),,C=Cc1n[nH]c2ccc(-c3ccc(NCC(C)(C)c4ccc(F)cc4)nn3)cc12 [[2-(4-fluorophenyl)-2-methylpropyl][6-(3-vinyl(1H-indazol-5-yl))pyridazin-3-yl]amine]
,A (A=<1 uM),CC(C)(CNc1ccc(-c2ccc3[nH]nc(NCCOCc4ccccc4)c3c2)nn1)c1ccc(F)cc1 [[2-(4-fluorophenyl)-2-methylpropyl][6-(3-{[2-(phenylmethoxy)ethyl]amino}(1H-indazol-5-yl))pyridazin-3-yl]amine]
B (B=1-10 uM),,CC(C)(CNc1ccc(-c2ccc(F)cc2)nn1)c1ccc(F)cc1 [[2-(4-fluorophenyl)-2-methylpropyl][6-(4-fluorophenyl)pyridazin-3-yl]amine]
B (B=1-10 uM),,COc1ccc(-c2ccc(NCC(C)(C)c3ccc(F)cc3)nn2)nc1 [[2-(4-fluorophenyl)-2-methylpropyl][6-(5-methoxy(2-pyridyl))pyridazin-3-yl]amine]
A (A=<1 uM),,COc1cccc(-c2ccc(NCC(C)(C)c3ccc(F)cc3)nn2)n1 [[2-(4-fluorophenyl)-2-methylpropyl][6-(6-methoxy(2-pyridyl))pyridazin-3-yl]amine]
B (B=1-10 uM),,CNc1n[nH]c2ccc(-c3ccc(NCC(C)(C)c4ccc(F)cc4)nn3)cc12 [[2-(4-fluorophenyl)-2-methylpropyl]{6-[3-(methylamino)(1H-indazol-5-yl)]pyridazin-3-yl}amine]
B (B=1-10 uM),,CC(C)(CNc1ccc(-c2cccc(C(=O)NCCO)c2)nn1)c1ccc(F)cc1 [[3-(6-{[2-(4-fluorophenyl)-2-methylpropyl]amino}pyridazin-3-yl)phenyl]-N-(2-hydroxyethyl)carboxamide]
B (B=1-10 uM),,CC(C)(CNc1ccc(-c2cccc(C(=O)NCCNC(=O)c3cccc(-c4ccc(NCC(C)(C)c5ccc(F)cc5)nn4)c3)c2)nn1)c1ccc(F)cc1 [[3-(6-{[2-(4-fluorophenyl)-2-methylpropyl]amino}pyridazin-3-yl)phenyl]-N-(2-{[3-(6-{[2-(4-fluorophenyl)-2-methylpropyl]amino}pyridazin-3-yl)phenyl]carbonylamino}eth-yl)carboxamide]
B (B=1-10 uM),,CNC(=O)c1cccc(-c2ccc(NCC(C)(C)c3ccc(F)cc3)nn2)c1 [[3-(6-{[2-(4-fluorophenyl)-2-methylpropyl]amino}pyridazin-3-yl)phenyl]-N-methylcarboxamide]
B (B=1-10 uM),,CC(C)(CNc1ccc(-c2cccc(CO)c2)nn1)c1ccc(F)cc1 [[3-(6-{[2-(4-fluorophenyl)-2-methylpropyl]amino}pyridazin-3-yl)phenyl]methan-1-ol]
B (B=1-10 uM),,"CN(C)C(=O)n1nc(N)c2cc(-c3ccc(NCC(C)(C)c4ccc(F)cc4)nn3)ccc21 [[3-amino-5-(6-{[2-(4-fluorophenyl)-2-methylpropyl]amino}pyridazin-3-yl)(1H-indazolyl)]-N,N-dimethylcarboxamide]"
A (A=<1 uM),,CC(C)(CNc1ccc(-c2ccc3[nH]nc(NS(C)(=O)=O)c3c2)nn1)c1ccc(F)cc1 [[5-(6-{[2-(4-fluorophenyl)-2-methylpropyl]amino}pyridazin-3-yl)(1H-indazol-3-yl)](methylsulfonyl)amine]
,B (B=1-10 uM),CN(C)c1n[nH]c2ccc(-c3ccc(NCC(C)(C)c4ccc(F)cc4)nn3)cc12 [[5-(6-{[2-(4-fluorophenyl)-2-methylpropyl]amino}pyridazin-3-yl)(1H-indazol-3-yl)]dimethylamine]
A (A=<1 uM),,CC(C)(CNc1ccc(-c2ccc3[nH]nc(CO)c3c2)nn1)c1ccc(F)cc1 [[5-(6-{[2-(4-fluorophenyl)-2-methylpropyl]amino}pyridazin-3-yl)-1H-indazol-3-yl]methan-1-ol]
,A (A=<1 uM),"Fc1cccnc1C1(CNc2ccc(-c3cccc(F)c3F)nn2)CCC1 [[6-(2,3-difluorophenyl)pyridazin-3-yl]{[(3-fluoro(2-pyridyl))cyclobutyl]methyl}amine]"
,B (B=1-10 uM),Nc1ncccc1-c1ccc(NCC2(c3ncccc3F)CCC2)nn1 [[6-(2-amino(3-pyridyl))pyridazin-3-yl]{[(3-fluoro(2-pyridyl))cyclobutyl]methyl}amine]
B (B=1-10 uM),,CC(C)(CNc1ccc(-c2ccnc(N)c2)nn1)c1ccc(F)cc1 [[6-(2-amino(4-pyridyl))pyridazin-3-yl][2-(4-fluorophenyl)-2-methylpropyl]amine]

SMILES,Mean AC1.4 [1],Mean AC1.4 [2]
"CC(C)(CNc1ccc(C2=CCNCC2)nn1)c1ccc(F)cc1 [[2-(4-fluorophenyl)-2-methylpropyl](6-(4-1,2,5,6-tetrahydropyridyl)pyridazin-3-yl)amine]",B (B=1-10 uM),
